# According to US10239871B2, “Compounds and methods for regulating integrins” (ADHAERE PHARMACEUTICALS, INC., priority 2012, dated 2019):
# Assays:
# [1] = tested on: allograft transplantation; assay: Allograft transplantation model (kidney); type: in vivo; conditions: co-treatment with cyclosporine
# [2] = tested on: SD rats; assay: Subacute toxicity assessment in rats; type: in vivo, rat
# Experimental: LA1 is non-toxic in vivo. A subacute toxicity assessment of LA1 in rats was performed.
# LA1 had no effect on the daily food intake or growth.
# Next, a subacute toxicity assessment was performed of LA1 in rats in the Comparative Pathology core. […] LA1 had no effect on the daily food intake or growth.
# [3] = tested on: C57BL/6J mice; assay: Survival after sublethal total body irradiation; type: in vivo; conditions: 20 μg/animal for seven days
# Experimental: Control groups (16 mice per group) of 6-8 weeks old C57BL/6J mice received a single sublethal dose (6 Gy) of total body radiation (TBI) and were monitored for survival with radiation alone. The experimental groups (16 mice per group) of 6-8 weeks old C57BL/6J received a single sublethal dose (6 Gy) of total body radiation (TBI) and were administered leukadherin LA1 (20 μg/animal) for seven consecutive days. Additionally, two additional control groups of animals were monitored—animals with no treatment at all or animals that were administered LA1 for seven consecutive days in the absence of any irradiation.
# [4] = tested on: neutrophil chemotaxis; conditions: previously shown [55]; cited from earlier work
# [5] = target: T1, CD11b/CD18 (Homo sapiens, UniProt P11215); assay: Flow chamber assay (adhesion under wall shear stress); type: cell-based; design: expressed in transfected cells; host or cells: 293T cells, transient transfection; conditions: 25 μM LA1, unlike Mn2+
# Experimental: The flow chamber assay was performed as described in literature (Chen, J. F., Salas, A. & Springer, T. A. Bistable regulation of integrin adhesiveness by a bipolar metal ion cluster. Nat. Struct. Biol. 10, 995-1001 (2003)). A polystyrene Petri dish was coated with a 5 mm diameter, 20 μL spot of 20 μg/mL purified h-ICAM-1/Fc (R&D) or 20 μg/mL Fibrinogen in coating buffer (PBS, 10 mM NaHCO3, pH 9.0) for 1 hour at 37° C., followed by 2% BSA in coating buffer for 1 hour at 37° C. to block nonspecific binding sites. Transient transfected 293T cells were washed twice with wash buffer (20 mM Hepes, 150 mM NaCl, pH 7.4, 5 mM EDTA/0.5% BSA), subsequently once with HBS containing 1 mM Ca^2+ and 1 mM Mg^2+ (HBS^++), and finally resuspended at the concentration of 5×10^6/mL in HBS^++ ([…], 0.5% BSA) and kept on ice. Cells were incubated in 2% DMSO with or without 25 μM LA1 at 37° C. for 30 minutes. And subsequently infused in the flow chamber using a Harvard apparatus programmable syringe pump. Cells were allowed to settle down for 5 minutes, and accumulate for 30 seconds at 0.3 dyn/cm^2 and 10 seconds at 0.4 dyn/cm^2. […] The number of cells remaining abound at the end of each 10-sec interval were determined. Rolling velocity at each shear stress was calculated from the average distance traveled by rolling cells in 3 seconds. […]
# [6] = target: T1, CD11b/CD18; assay: Flow cytometry with conformation reporter mAbs KIM127 and 24 on K562 WT cells; type: cell-based; design: K562 cells stably transfected with plasmid encoding wild-type integrin CD11b/CD18; expressed in transfected cells; conditions: LA1 15 uM, Mn2+ 1 mM; vs basal
# Experimental: Flow cytometric analyses of K562 WT cells were performed according to published protocols. Briefly, cells were suspended in the assay buffer (Tris-buffered saline (TBS) containing 1 mM of ions Ca2+ and/or Mg2+ and 0.1% BSA). Cells ([…]) were incubated with primary mAb (1:100 dilution of IB4 ascites or the isotype controls, 1:50 […] and 24 and the relevant isotype controls, where incubations were performed at 37 °C) for 30 minutes. Subsequently, the cells were washed three times with the assay buffer and incubated with goat anti-mouse-APC (1 µg/ml, Invitrogen) for 20 minutes at 4° C. Cells were washed twice with the assay buffer and analyzed using FACSCaliber flow cytometer (BD Biosciences, CA), counting at least 10,000 events. Data was analyzed using the CellQuest software (BD Biosciences). Data shown is from one of at least three independent experiments.
# Ligand binding induces extension of the integrin heterodimer and large, global conformational changes leading to outside-in signaling. Binding of activating antibodies also induces global conformational changes in the integrin heterodimer and such large conformational changes mimic those induced upon ligand binding. […] Thus, mAb KIM127 is often used as a reporter for the extended conformation of P2 integrins. […]
smiles,measurement,setting,value
O=C(O)c1ccc(-c2ccc(/C=C3\SC(=S)N(Cc4ccccc4)C3=O)o2)cc1 [LA1],engraftment of the donated kidney,[1],much better engraftment
same,Haematological constants,[2]; IP ~3 mg/kg/d for 21 d,on par with those of controls
same,"biochemical measurements in serum and liver (enzyme levels, serum constituents)",[2]; IP ~3 mg/kg/d for 21 d,no appreciable changes
same,daily food intake or growth,[2]; IP ~3 mg/kg/d for 21 d,no effect
same,overt toxicity or mortality,"[2]; IP ~3 mg/kg/d for 21 d, SD rats of both sexes",failed to induce any overt toxicity or mortality
same,relative organ weights of vital organs and their histoarchitecture,"[2]; autopsy, lung, heart, spleen, liver, kidney",no significant alterations
same,animal mortality,[3]; with or without 6 Gy TBI,did not result in any increase in animal mortality
same,effect on survival after sublethal TBI,[3]; 6 Gy TBI,protective effect
same,neutrophil chemotaxis,[4],impairs neutrophil chemotaxis
same,adhesive behavior of CD11b/CD18 transfectants under wall shear stress (conformation induced),[5],induces priming of CD11b/CD18 and converts it into intermediate conformation
same,binding of conformation reporter KIM127,[6],very small increase
same,binding of conformation reporter mAb 24,[6],small increase
